Results taken from article PMC5331433, “Ustiloxin G, a New Cyclopeptide Mycotoxin from Rice False Smut Balls” (Toxins, 2017).

Tests used:
HCT116 = assay: Cytotoxicity, MTT assay, HCT116; type: cell-based, human; conditions: 24 h treatment, absorbance 570 nm, three replicates
Procedure: (§1) Cytotoxicity of the compounds were tested against human carcinoma cells using the microculture methyl-thiazolyl-tetrazolium (MTT) assay as described previously. Briefly, the cell lines were maintained in a humidified atmosphere containing 5% CO2 at 37 °C. For preparing working solution, 1 μmol of each purified ustiloxin was dissolved in 10 mL of ultrapure water to obtain the stock solution (100 μM), which was further diluted to a series of concentrations (50, 25, 12.5, 6.25, 3.125, 1, 0.1, 1 × 10^−2, 1 × 10^−3, 1 × 10^−4, 1 × 10^−5 μM) with ultrapure water. Normally, 200 μL of the cell suspensions (5 × 10^4 cells/mL) was plated in 96-well culture plates at 37 °C. After 12 h, 20 μL of working solution was added to each well respectively and cultured at 37 °C for 24 h. Then, MTT was dissolved in saline to 5 mg/mL, and 20 μL of this solution was added to each well. After 4 h, the medium was removed, and then 100 μL of DMSO was added to dissolve any formazan crystals formed. Absorbance was then determined at 570 nm. The cell lines of colon cancer cells (HCT-116), non-small-cell lung carcinoma cells (NCI-H1650), gastric cancer cells (BGC-823), and liver hepatocellular carcinoma cells (HepG2) were tested for all isolated compounds. In addition, lung adenocarcinoma cells (A549) were tested on ustiloxins A (2), B (3), and G (1), and melanoma cells (A375) were tested on ustiloxin G (1). Ultrapure water and taxol were used as the negative and positive controls, respectively. All experiments were performed with three replicates.

NCI-H1650 = assay: Cytotoxicity, MTT assay, NCI-H1650; type: cell-based, human; conditions: 24 h treatment, absorbance 570 nm, three replicates
Procedure: as §1

BGC-823 = assay: Cytotoxicity, MTT assay, BGC-823; type: cell-based, human; conditions: 24 h treatment, absorbance 570 nm, three replicates
Procedure: as §1

HepG2 = assay: Cytotoxicity, MTT assay, HepG2; type: cell-based, human; conditions: 24 h treatment, absorbance 570 nm, three replicates
Procedure: as §1

A549 = assay: Cytotoxicity, MTT assay, A549; type: cell-based, human; conditions: 24 h treatment, absorbance 570 nm, three replicates
Procedure: as §1

A375 = assay: Cytotoxicity, MTT assay, A375; type: cell-based, human; conditions: 24 h treatment, absorbance 570 nm, three replicates
Procedure: as §1, with “Ultrapure water and taxol were used as the negative and positive controls, respectively. All experiments were performed with three replicates.” left out

[1] = test system: rice (Oryza sativa) seeds, radicle; assay: Inhibition of radicle elongation of rice seeds; conditions: 48 h, 25 °C, dark, mean of triplicate ± SD
Procedure: (§2) Phytotoxicity of the compounds was evaluated by their inhibitory activities on the radicle and germ elongation of rice (Oryza sativa) seeds. Two varieties (Lijiang and Zhonghua 11) of the seeds, which were obtained from Prof. Zejian Guo (Department of Plant Pathology and collected in 2015, China Agricultural University) were used.
(§3) The bioassay was performed using the method described previously with some modifications. Briefly, five 3-day germinated rice seeds of each rice variety were sown onto each well of a 24-well plate, containing 200 μL of working solution. For preparing working solution, 1 mg of each purified compound was dissolved in 1 mL of ultrapure water to obtain the stock solution (1 mg/mL), which was further diluted to a series of concentrations (200, 100, 50, 20, and 10 μg/mL) with ultrapure water. The ultrapure water was used as the negative control, and glyphosate (N-(phosphonomethyl)glycine) at the same concentrations as the positive control. Plates were incubated in a moist chamber at 25 °C in the dark. The length of each radicle or germ was measured after treatment for 48 h. The inhibition of radicle or germ elongation was calculated as follows: Inhibition (%) = [(Lc − Lt)/Lc] × 100, where Lc is the radicle or germ length of the control group, and Lt is the length of the treated group.
(§4) All experiments were performed with three replicates, and the results were represented by their mean values and the standard deviations (SD). The data were carried out using analysis of variance (one-way ANOVA) to detect significant differences by PROC ANOVA of SAS version 8.2.

[2] = test system: rice (Oryza sativa) seeds, germ; assay: Inhibition of germ elongation of rice seeds; conditions: 48 h, 25 °C, dark, mean of triplicate ± SD
Procedure: as §2, §3, §4

rice seedlings = assay: Abnormal swelling of roots and germs of rice seedlings; design: species or system Oryza sativa; conditions: observation in words; Figure 3B shows 200 µg/mL of ustiloxin G, variety Lijiang
Procedure: as §3

With `CC(=O)O[C@H]1C(=O)[C@@]2(C)[C@H]([C@H](OC(=O)c3ccccc3)[C@]3(O)C[C@H](OC(=O)[C@H](O)[C@@H](NC(=O)c4ccccc4)c4ccccc4)C(C)=C1C3(C)C)[C@]1(OC(C)=O)CO[C@@H]1C[C@@H]2O` [Taxol, reference compound] the IC50 (HCT116; Homo sapiens, HCT-116, colon cancer cells) was 1.9 nM, the IC50 (NCI-H1650; Homo sapiens, NCI-H1650, non-small-cell lung carcinoma cells) was 1100 nM and the IC50 (BGC-823; Homo sapiens, BGC-823, gastric cancer cells) was 0.107 nM. It also gave an IC50 (HepG2; Homo sapiens, HepG2, liver hepatocellular carcinoma cells) of 14.6 nM, an IC50 (A549; Homo sapiens, A549, lung adenocarcinoma cells) of 23 nM and an IC50 (A375; Homo sapiens, A-375, melanoma cells) of 22 nM.

Work on `CC[C@@]1(C)Oc2cc(c([S+]([O-])CCO)cc2O)[C@@H](O)[C@H](NC)C(=O)N[C@@H](C(C)C)C(=O)N[C@@H]1C(=O)NCC(=O)O` (stereo partly drawn) [Ustiloxin G (1), ustiloxin G] yielded an IC50 (HCT116; colon cancer cells) of over 50000 nM, an IC50 (NCI-H1650; non-small-cell lung carcinoma cells) of over 50000 nM and an IC50 (BGC-823; gastric cancer cells) of over 50000 nM. For the same compound, the IC50 (HepG2; liver hepatocellular carcinoma cells) was over 50000 nM, the IC50 (A549; lung adenocarcinoma cells) was 36500 nM and the IC50 (A375; melanoma cells) was 22500 nM. The “Inhibition Ratio (%) Seed Radicle Var. Lijiang” value ([1]; 10 µg/mL) was 12.56%, the “Inhibition Ratio (%) Seed Radicle Var. Zhonghua 11” value ([1]; 10 µg/mL) was 27.27% and the “Inhibition Ratio (%) Seed Radicle Var. Lijiang” value ([1]; 20 µg/mL) was 17.00%. For the same compound, the “Inhibition Ratio (%) Seed Radicle Var. Zhonghua 11” value ([1]; 20 µg/mL) was 31.67%, the “Inhibition Ratio (%) Seed Radicle Var. Lijiang” value ([1]; 50 µg/mL) was 37.64 ± 1.21 g % and the “Inhibition Ratio (%) Seed Radicle Var. Zhonghua 11” value ([1]; 50 µg/mL) was 54.14 ± 4.20 d %. The “Inhibition Ratio (%) Seed Radicle Var. Lijiang” value ([1]; 100 µg/mL) was 90.33%, the “Inhibition Ratio (%) Seed Radicle Var. Zhonghua 11” value ([1]; 100 µg/mL) was 90.16 ± 3.62 a % and the “Inhibition Ratio (%) Seed Radicle Var. Lijiang” value ([1]; 200 µg/mL) was 95.19 ± 1.92 a %. For the same compound, the “Inhibition Ratio (%) Seed Radicle Var. Zhonghua 11” value ([1]; 200 µg/mL) was 93.40 ± 1.91 a %, the “Inhibition Ratio (%) Seed Germ Var. Lijiang” value ([2]; 10 µg/mL) was 2.74 ± 4.76 l % and the “Inhibition Ratio (%) Seed Germ Var. Zhonghua 11” value ([2]; 10 µg/mL) was 14.11%. The “Inhibition Ratio (%) Seed Germ Var. Lijiang” value ([2]; 20 µg/mL) was 8.89%, the “Inhibition Ratio (%) Seed Germ Var. Zhonghua 11” value ([2]; 20 µg/mL) was 14.68% and the “Inhibition Ratio (%) Seed Germ Var. Lijiang” value ([2]; 50 µg/mL) was 27.96 ± 3.32 f %. The “Inhibition Ratio (%) Seed Germ Var. Zhonghua 11” value ([2]; 50 µg/mL) was 36.29%, the “Inhibition Ratio (%) Seed Germ Var. Lijiang” value ([2]; 100 µg/mL) was 36.95 ± 5.23 e % and the “Inhibition Ratio (%) Seed Germ Var. Zhonghua 11” value ([2]; 100 µg/mL) was 39.33%. The “Inhibition Ratio (%) Seed Germ Var. Lijiang” value ([2]; 200 µg/mL) was 65.01%, the “Inhibition Ratio (%) Seed Germ Var. Zhonghua 11” value ([2]; 200 µg/mL) was 50.45% and the “abnormal swelling of the roots and germs of rice seedlings” value (rice seedlings) was “abnormal swelling”.
